Assay results: patent publication US5670358A, “Method for inhibiting chymopapain and papain enzyme activity with polysaccharides of animal origin” (Baxter International Inc., priority 1995, dated 1997)

Legend:
chymopapain = test: Chymopapain protease activity, hydrolysis of BAPNA synthetic substrate (absorbance 415 nm); format: biochemical, papaya; settings: for Chymopapain % Inhibited: 37° C., Tricine buffer 50 mM, 10 mM CaCl2
Protocol: (§1) The invention will be better understood by reference to the following nonlimiting examples which illustrate the use of the animal-derived polysaccharide materials of the present invention in inhibiting various enzymes. In these examples the activities of chymopapain and papain were determined by assay using BAPNA, N-benzoyl-L-arginine-p-nitroanilide synthetic substrate by measuring the increase in absorbance at 415 nm. The activity of clostripain was determined by assay using BAEE, N-benzoyl-L-arginine ethyl ester synthetic substrate by measuring the increase in absorbance at […]. The activity of trypsin was determined by assay using BAPNA.
(§2) Protease activity was determined by measuring the reaction rates for the hydrolysis of synthetic substrates for the enzymes trypsin, chymopapain, papain, and clostripain. The increase in absorbance at 415 nm was used for the measurement of the reaction rates for trypsin, chymopapain and papain upon a BAPNA substrate. The increase in absorbance at 253 nm was used for the measurement of the reaction rates for clostripain. Trypsin, chymopapain and papain activities were determined at 37° C. in Tricine buffer, 50 mM, containing 10 mM CaCl2. Clodytipain activity was determined at room temperature. Chymopapain, papain, and clostripain were activated with L-cysteine or dithiothreitol reducing agent prior to assay. Concentration of reducing agent in the substrate solution was maintained at 5 mM by addition of reducing agent to the substrate solution.
(§3) Glycogen was dissolved in the assay buffer to a final concentration of 1%. The percentage inhibition was obtained from the ratio of enzyme activity in the presence of inhibitor to the activity of a control to which no inhibitor was added.

trypsin = test: Trypsin protease activity, hydrolysis of BAPNA synthetic substrate (absorbance 415 nm); format: biochemical; settings: for Trypsin % Inhibited: 37° C., Tricine buffer 50 mM, 10 mM CaCl2
Protocol: as §1, §2, §3

clostripain = test: Clostripain protease activity, hydrolysis of BAEE synthetic substrate (absorbance 253 nm); format: biochemical; settings: for Clostripain % Inhibited: room temperature
Protocol: as §1, §2, §3

papain = test: Papain protease activity, hydrolysis of BAPNA synthetic substrate (absorbance 415 nm); format: biochemical, papaya; settings: 37° C., Tricine buffer 50 mM, 10 mM CaCl2
Protocol: as §1, §2
The percentage inhibition was obtained from the ratio of enzyme activity in the presence of inhibitor to the activity of a control to which no inhibitor was added.

[1] = inhibitor concentration 1%, listed as glycogen
[2] = inhibitor concentration 0.5%, listed as hyaluronic acid

Which results are given for Desulfated heparin?
Chymopapain % Inhibited (chymopapain; inhibitor concentration 0.5%): 8.8%; effectiveness in inhibiting trypsin relative to chymopapain and papain (trypsin; inhibitor concentration 0.5%): less than one-half as effective; Trypsin % Inhibited (trypsin; inhibitor concentration 0.5%): 4.1%; effectiveness in inhibiting clostripain relative to chymopapain and papain (clostripain; inhibitor concentration 0.5%): about one-tenth as effective; Clostripain % Inhibited (clostripain; inhibitor concentration 0.5%): 0.8%; Papain % Inhibited (papain; inhibitor concentration 0.5%): 9.8%

Which “effectiveness as inhibitor of chymopapain and papain activity relative to trypsin activity” value (chymopapain; inhibitor concentration 1%) does the source give for Glycogen here?
The value was 10-20 times.

What about the “Chymopapain % Inhibited” value (chymopapain; inhibitor concentration 1%) of the same substance?
The value was 17%.

What about the “Trypsin % Inhibited” value (trypsin; inhibitor concentration 1%) of the same substance?
Its value is 1.1%.

And the “Trypsin % Inhibited” value (trypsin; [1])?
Its value is “about 1%”.

And the “Clostripain % Inhibited” value (clostripain; inhibitor concentration 1%)?
Its value is 0%.

What about the “Clostripain % Inhibited” value (clostripain; [1]) of the same substance?
Its value is “no inhibiting effect”.

What about the “Papain % Inhibited” value (papain; inhibitor concentration 1%) of the same substance?
Its value is 12.5%.

What does the source list for Hyaluronic acid?
Chymopapain % Inhibited (chymopapain; inhibitor concentration 0.5%): 34.2%; Chymopapain % Inhibited (chymopapain; [2]): effective; Trypsin % Inhibited (trypsin; inhibitor concentration 0.5%): 0%; Trypsin % Inhibited (trypsin; [2]): no inhibiting effect; Clostripain % Inhibited (clostripain; inhibitor concentration 0.5%): 0%; Clostripain % Inhibited (clostripain; [2]): no inhibiting effect; Papain % Inhibited (papain; inhibitor concentration 0.5%): 35.8%; Papain % Inhibited (papain; [2]): effective
